Source: patent publication US8710043B2, “TRPM8 antagonists and their use in treatments” (Amgen Inc., priority 2011, dated 2014)

target: T1, human TRPM8 (Homo sapiens, UniProt Q7Z2W7); experiment: Luminescence readout assay for measuring intracellular calcium, icilin activation; format: cell-based; conditions: CHO cells expressing human TRPM8, aequorin luminescence, 1 μM icilin activation; read-out: hTRPM8 IC50
T1 construct: expressed in transfected cells; host or cells: Chinese hamster ovary (CHO) cells, T-REx tetracycline-inducible system, co-transfected with aequorin
Outline: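 The read-out was luminescence reporting intracellular calcium, recorded by a CCD-based luminometer. Compounds were preincubated for 2.5 min before agonist challenge with 1 μM icilin. Human TRPM8 was expressed in a stable T-REx CHO line, induced with 0.5 μg/mL tetracycline the day before.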

T1 sequence (Q7Z2W7 whole entry): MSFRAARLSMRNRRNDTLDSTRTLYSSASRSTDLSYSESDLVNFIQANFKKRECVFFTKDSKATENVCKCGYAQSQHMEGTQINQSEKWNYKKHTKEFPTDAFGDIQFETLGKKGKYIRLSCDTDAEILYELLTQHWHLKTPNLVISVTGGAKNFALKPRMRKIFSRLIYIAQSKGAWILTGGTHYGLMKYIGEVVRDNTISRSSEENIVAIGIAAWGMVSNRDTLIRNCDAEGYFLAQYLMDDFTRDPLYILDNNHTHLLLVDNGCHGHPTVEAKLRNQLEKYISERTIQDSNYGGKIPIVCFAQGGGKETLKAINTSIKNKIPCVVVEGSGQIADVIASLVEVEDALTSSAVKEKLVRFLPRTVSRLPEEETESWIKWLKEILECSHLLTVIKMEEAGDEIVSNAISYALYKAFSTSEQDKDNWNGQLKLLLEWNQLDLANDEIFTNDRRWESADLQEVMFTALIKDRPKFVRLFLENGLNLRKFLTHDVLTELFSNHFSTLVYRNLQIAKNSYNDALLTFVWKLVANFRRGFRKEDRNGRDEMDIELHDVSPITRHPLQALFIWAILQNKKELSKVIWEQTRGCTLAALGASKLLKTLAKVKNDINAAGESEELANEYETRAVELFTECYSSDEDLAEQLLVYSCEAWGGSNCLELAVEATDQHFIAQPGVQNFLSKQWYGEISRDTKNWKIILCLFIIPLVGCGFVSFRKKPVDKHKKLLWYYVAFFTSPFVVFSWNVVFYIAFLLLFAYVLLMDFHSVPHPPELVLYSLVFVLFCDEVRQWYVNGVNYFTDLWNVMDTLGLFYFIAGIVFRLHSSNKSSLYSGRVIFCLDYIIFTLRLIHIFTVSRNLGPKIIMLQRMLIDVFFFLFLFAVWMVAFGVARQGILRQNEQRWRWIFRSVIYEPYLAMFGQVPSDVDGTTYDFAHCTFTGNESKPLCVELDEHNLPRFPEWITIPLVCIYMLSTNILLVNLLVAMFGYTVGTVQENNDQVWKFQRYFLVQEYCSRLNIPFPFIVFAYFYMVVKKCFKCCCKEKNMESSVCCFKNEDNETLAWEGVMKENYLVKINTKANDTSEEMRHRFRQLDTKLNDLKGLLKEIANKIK

Row | Compound | IC50 [µM]
1 | N#Cc1ccccc1C(=O)N[C@@H](c1ccc(C(F)(F)F)cc1)c1ncccc1C(F)(F)F [Example 197, (S)-2-cyano-N-((4-(trifluoromethyl)phenyl)(3-(trifluoromethyl)pyridin-2-yl)methyl)benzamide] | 0.115
2 | O=C(N[C@@H](c1ccc(C(F)(F)F)cc1)c1ncccc1F)c1cccnc1 [Example 203, (S)-N-((3-fluoropyridin-2-yl)(4-(trifluoromethyl)phenyl)methyl)nicotinamide] | 0.135
3 | O=C(N[C@@H](c1ccc(C(F)(F)F)cc1)c1ncccc1C(F)(F)F)c1ccc(Br)cn1 [Example 205, (S)-5-bromo-N-((4-(trifluoromethyl)phenyl)(3-(trifluoromethyl)pyridin-2-yl)methyl)picolinamide] | 0.14
4 | O=C(O)c1cccc(C(=O)N[C@@H](c2ccc(C(F)(F)F)cc2)c2ncccc2F)c1 [Example 207, (S)-3-(((3-fluoropyridin-2-yl)(4-(trifluoromethyl)phenyl)methyl)carbamoyl)benzoic acid] | 0.121
5 | O=C(NC(c1ccc(C(F)(F)F)cc1)c1ncccc1F)c1cccc(F)c1 (stereo not drawn) [Example 209, 3-fluoro-N-((3-fluoropyridin-2-yl)(4-(trifluoromethyl)phenyl)methyl)benzamide] | 0.105
6 | COc1ccc(C(=O)N[C@@H](c2ccc(C(F)(F)F)cc2)c2ncccc2C(F)(F)F)nc1 [Example 210, (S)-5-methoxy-N-((4-(trifluoromethyl)phenyl)(3-(trifluoromethyl)pyridin-2-yl)methyl)picolinamide] | 0.15
7 | O=C(N[C@@H](c1ccc(C(F)(F)F)cc1)c1ncccc1C(F)(F)F)c1cccc(C(F)(F)F)c1 [Example 211, (S)-3-(trifluoromethyl)-N-((4-(trifluoromethyl)phenyl)(3-(trifluoromethyl)pyridin-2-yl)methyl)benzamide] | 0.115
8 | O=C(N[C@@H](c1ccc(C(F)(F)F)cc1)c1ncccc1C(F)(F)F)c1ccnnc1 [Example 212, (S)-N-((4-(trifluoromethyl)phenyl)(3-(trifluoromethyl)pyridin-2-yl)methyl)pyridazine-4-carboxamide] | 0.0815
9 | COc1cccc(C(=O)NC(c2ccc(C(F)(F)F)cc2)c2ncccc2F)c1 (stereo not drawn) [Example 214, N-((3-fluoropyridin-2-yl)(4-(trifluoromethyl)phenyl)methyl)-3-methoxybenzamide] | 0.121
10 | CS(=O)(=O)c1cccc(C(=O)N[C@@H](c2ccc(C(F)(F)F)cc2)c2ncccc2F)c1 [Example 216, (S)-N-((3-fluoropyridin-2-yl)(4-(trifluoromethyl)phenyl)methyl)-3-(methylsulfonyl)benzamide] | 0.143
11 | CS(=O)(=O)c1ccc(C(=O)N[C@@H](c2ccc(C(F)(F)F)cc2)c2ncccc2F)cc1 [Example 217, (S)-N-((3-fluoropyridin-2-yl)(4-(trifluoromethyl)phenyl)methyl)-4-(methylsulfonyl)benzamide] | 0.147
12 | O=C(Cc1ccccc1)N[C@@H](c1ccc(C(F)(F)F)cc1)c1ncccc1C(F)(F)F [Example 218, (S)-2-phenyl-N-((4-(trifluoromethyl)phenyl)(3-(trifluoromethyl)pyridin-2-yl)methyl)acetamide] | 0.23
13 | O=C(N[C@@H](c1ccc(C(F)(F)F)cc1)c1ncccc1C(F)(F)F)c1cccc(OC(F)(F)F)c1 [Example 219, (S)-3-(trifluoromethoxy)-N-((4-(trifluoromethyl)phenyl)(3-(trifluoromethyl)pyridin-2-yl)methyl)benzamide] | 0.137
14 | O=C(N[C@@H](c1ccc(C(F)(F)F)cc1)c1ncccc1C(F)(F)F)c1ccno1 [Example 220, (S)-N-((4-(trifluoromethyl)phenyl)(3-(trifluoromethyl)pyridin-2-yl)methyl)isoxazole-5-carboxamide] | 0.164
15 | Cc1ncoc1C(=O)NC(c1ccc(C(F)(F)F)cc1)c1ncccc1F (stereo not drawn) [Example 221] | 0.105
16 | O=C(N[C@@H](c1ccc(C(F)(F)F)cc1)c1ncccc1C(F)(F)F)c1cc2ccccc2s1 [Example 222, (S)-N-((4-(trifluoromethyl)phenyl)(3-(trifluoromethyl)pyridin-2-yl)methyl)benzo[b]thiophene-2-carboxamide] | 0.119
17 | O=C1CCCC(C(=O)N[C@@H](c2ccc(C(F)(F)F)cc2)c2ncccc2C(F)(F)F)C1 (stereo partly drawn) [Example 223, 3-oxo-N-((S)-(4-(trifluoromethyl)phenyl)(3-(trifluoromethyl)pyridin-2-yl)methyl)cyclohexanecarboxamide] | 0.599
18 | COCCC(=O)N[C@@H](c1ccc(C(F)(F)F)cc1)c1ncccc1C(F)(F)F [Example 224, (S)-3-methoxy-N-((4-(trifluoromethyl)phenyl)(3-(trifluoromethyl)pyridin-2-yl)methyl)propanamide] | 1.4
19 | O=C(N[C@@H](c1ccc(C(F)(F)F)cc1)c1ncccc1C(F)(F)F)C1CCOC1 (stereo partly drawn) [Example 225, N-((S)-(4-(trifluoromethyl)phenyl)(3-(trifluoromethyl)pyridin-2-yl)methyl)THF-3-carboxamide] | 0.487
20 | O=C(O)c1cncc(C(=O)N[C@@H](c2ccc(C(F)(F)F)cc2)c2ncccc2C(F)(F)F)c1 [Example 226, (S)-5-(((4-(trifluoromethyl)phenyl)(3-(trifluoromethyl)pyridin-2-yl)methyl)carbamoyl)nicotinic acid] | 2.31
21 | CC(C)(C)OC(=O)N1CC(CC(=O)N[C@@H](c2ccc(C(F)(F)F)cc2)c2ncccc2C(F)(F)F)C1 [Example 229, (S)-tert-butyl 3-(2-oxo-2-(((4-(trifluoromethyl)phenyl)(3-(trifluoromethyl)pyridin-2-yl)methyl)amino)ethyl)azetidine-1-carboxylate] | 0.354

Next, values leading:

Row | IC50 [µM] | Compound
22 | 0.079 | Cn1ccc(C(=O)N[C@@H](c2ccc(C(F)(F)F)cc2)c2ncccc2C(F)(F)F)n1 [Example 192, (S)-1-methyl-N-((4-(trifluoromethyl)phenyl)(3-(trifluoromethyl)pyridin-2-yl)methyl)-1H-pyrazole-3-carboxamide]
23 | 0.0348 | O=C(NC(c1ccc(C(F)(F)F)cc1)c1ncccc1F)c1ccccc1 (stereo not drawn) [Example 193, N-((3-fluoropyridin-2-yl)(4-(trifluoromethyl)phenyl)methyl)benzamide]
24 | 0.0756 | O=C(N[C@@H](c1ccc(C(F)(F)F)cc1)c1ncccc1F)c1ccccn1 [Example 194, (S)-N-((3-fluoropyridin-2-yl)(4-(trifluoromethyl)phenyl)methyl)picolinamide]
25 | 0.0506 | O=C(N[C@@H](c1ccc(C(F)(F)F)cc1)c1ncccc1Br)c1ccc2cccnc2c1 [Example 195, (S)—N-((3-bromopyridin-2-yl)(4-(trifluoromethyl)-phenyl)methyl)quinoline-7-carboxamide]
26 | 0.0671 | CN(C)c1ccc(C(=O)N[C@@H](c2ccc(C(F)(F)F)cc2)c2ncccc2C(F)(F)F)cc1 [Example 196, (S)-4-(dimethylamino)-N-((4-(trifluoromethyl)phenyl)(3-(trifluoromethyl)pyridin-2-yl)methyl)benzamide]
27 | 0.056 | O=C(N[C@@H](c1ccc(C(F)(F)F)cc1)c1ncccc1F)c1cnc(Cl)c(Br)c1 [Example 198, (S)-5-bromo-6-chloro-N-((3-fluoropyridin-2-yl)(4-(trifluoromethyl)phenyl)methyl)nicotinamide]
28 | 0.0776 | O=C(N[C@@H](c1ccc(C(F)(F)F)cc1)c1ncccc1C(F)(F)F)c1ccoc1 [Example 199, (S)-N-((4-(trifluoromethyl)phenyl)(3-(trifluoromethyl)pyridin-2-yl)methyl)furan-3-carboxamide]
29 | 0.0293 | O=C(N[C@@H](c1ccc(C(F)(F)F)cc1)c1ccccn1)c1ccc(=O)[nH]c1 [Example 201, (S)-6-oxo-N-(pyridin-2-yl(4-(trifluoromethyl)phenyl)methyl)-1,6-dihydropyridine-3-carboxamide 2,2,2-trifluoroacetate]
30 | 0.0352 | O=C(NC(c1ccc(C(F)(F)F)cc1)c1ncccc1F)c1ccc2nccnc2c1 (stereo not drawn) [Example 202, N-((3-fluoropyridin-2-yl)(4-(trifluoromethyl)phenyl)methyl)quinoxaline-6-carboxamide]
31 | 0.0675 | N#Cc1ccc(C(=O)N[C@@H](c2ccc(C(F)(F)F)cc2)c2ncccc2C(F)(F)F)cn1 [Example 206, (S)-6-cyano-N-((4-(trifluoromethyl)phenyl)(3-(trifluoromethyl)pyridin-2-yl)methyl)nicotinamide]
32 | 0.0417 | O=C(N[C@@H](c1ccc(C(F)(F)F)cc1)c1ncccc1C(F)(F)F)c1cccc(Cl)c1 [Example 208, (S)-3-chloro-N-((4-(trifluoromethyl)phenyl)(3-(trifluoromethyl)pyridin-2-yl)methyl)benzamide]
33 | 0.043 | CS(=O)(=O)Nc1ccc(C(=O)N[C@@H](c2ccc(C(F)(F)F)cc2)c2ncccc2F)cc1 [Example 213, (S)-N-((3-fluoropyridin-2-yl)(4-(trifluoromethyl)phenyl)methyl)-4-(methylsulfonamido)benzamide]
34 | 0.0414 | O=C(N[C@@H](c1ccc(C(F)(F)F)cc1)c1ncccc1C(F)(F)F)c1cccc(F)c1 [Example 227, (S)-3-fluoro-N-((4-(trifluoromethyl)phenyl)(3-(trifluoromethyl)pyridin-2-yl)methyl)benzamide]
35 | 0.0397 | O=C(N[C@@H](c1ccc(C(F)(F)F)cc1)c1ncccc1C(F)(F)F)c1ccccn1 [Example 228, (S)-N-((4-(trifluoromethyl)phenyl)(3-(trifluoromethyl)pyridin-2-yl)methyl)picolinamide]

same assay, conditions: hTRPM8 IC50, CHO cells expressing human TRPM8, aequorin luminescence, 1 μM icilin activation

Row | Compound | IC50 [µM]
36 | Cn1nc(C(=O)N[C@@H](c2ccc(C(F)(F)F)cc2)c2ncccc2C(F)(F)F)c2ccccc21 [Example 215, (S)-1-methyl-N-((4-(trifluoromethyl)phenyl)(3-(trifluoromethyl)pyridin-2-yl)methyl)-1H-indazole-3-carboxamide] | 0.0845
